Assay results from patent publication EP0450761A1, “Spirocyclic oxytocin antagonists” (MERCK & CO. INC., priority 1990, dated 1991).

Columns and labels:
AVP-V₂ sites = molecular target: T1, AVP-V₂ sites (Rattus norvegicus, UniProt Q00788); experiment: [³H]AVP radioligand binding, crude membrane preparation of male rat kidney medulla (AVP-V₂ sites); conditions: for inhibition at 10 µM: 10 µM test compound, % of specific [³H]AVP binding inhibited (kidney), read-out: Inhibition Vasopressin V2 % inhibition @ 10
T1 construct: male rat liver (AVP-V₁ sites) or kidney medulla (AVP-V₂ sites); from tissue; host or cells: male rat kidney medulla, crude membrane preparation
Description: (§1) *Inhibition is expressed either as IC₅₀ in µM, or as % inhibition @ a specified concentration of the test compound (µM). The IC₅₀ is the concentration of the text compound which inhibits specific binding by 50%. The % inhibition at a specified concentration of the test compound is that percentage of specific binding which is inhibited by said concentration of said test compound.

AVP-V₁ sites = molecular target: T2, AVP-V₁ sites (Rattus norvegicus, UniProt P30560); experiment: [³H]AVP radioligand binding, crude membrane preparation of male rat liver (AVP-V₁ sites); conditions: for inhibition at 10 µM: 10 µM test compound, % of specific [³H]AVP binding inhibited (liver), read-out: Inhibition Vasopressin V1 % inhibition @ 10; for IC50: 1 nM [³H]AVP, rat liver membranes, 30 min at 30°C, read-out: Inhibition Vasopressin V1 IC50
T2 construct: a crude membrane preparation of male rat liver (AVP-V₁ sites); from tissue; host or cells: male rat liver, crude membrane preparation
Description: as §1

uterine OT receptors = molecular target: T3, uterine OT receptors (Rattus norvegicus, UniProt P70536); experiment: [³H]OT radioligand binding to uterine OT receptors, crude membrane preparation of uteri from DES-treated rats
T3 construct: a crude membrane preparation of uteri; from tissue; host or cells: uterus of DES-treated rats, crude membrane preparation
T3 sequence (P70536 1-388): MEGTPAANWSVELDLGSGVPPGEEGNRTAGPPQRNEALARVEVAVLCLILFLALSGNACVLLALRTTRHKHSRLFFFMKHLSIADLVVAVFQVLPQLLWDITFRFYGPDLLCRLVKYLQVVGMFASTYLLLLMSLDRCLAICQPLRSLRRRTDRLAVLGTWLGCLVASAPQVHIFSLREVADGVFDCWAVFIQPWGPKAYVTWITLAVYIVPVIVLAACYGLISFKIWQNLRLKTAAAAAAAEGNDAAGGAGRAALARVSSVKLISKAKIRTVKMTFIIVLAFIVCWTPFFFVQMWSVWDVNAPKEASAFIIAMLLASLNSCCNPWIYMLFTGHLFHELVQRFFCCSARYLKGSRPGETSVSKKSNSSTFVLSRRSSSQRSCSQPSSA
Method: Competition studies were conducted at equilibrium (60 min; 22°C) using 1 nM [³H]OT in the following assay buffer: 50 mM Tris-HCl, 5 mM MgCl₂, and 0.1% BSA, pH 7.4.
as §1

T2 sequence (P30560 whole entry): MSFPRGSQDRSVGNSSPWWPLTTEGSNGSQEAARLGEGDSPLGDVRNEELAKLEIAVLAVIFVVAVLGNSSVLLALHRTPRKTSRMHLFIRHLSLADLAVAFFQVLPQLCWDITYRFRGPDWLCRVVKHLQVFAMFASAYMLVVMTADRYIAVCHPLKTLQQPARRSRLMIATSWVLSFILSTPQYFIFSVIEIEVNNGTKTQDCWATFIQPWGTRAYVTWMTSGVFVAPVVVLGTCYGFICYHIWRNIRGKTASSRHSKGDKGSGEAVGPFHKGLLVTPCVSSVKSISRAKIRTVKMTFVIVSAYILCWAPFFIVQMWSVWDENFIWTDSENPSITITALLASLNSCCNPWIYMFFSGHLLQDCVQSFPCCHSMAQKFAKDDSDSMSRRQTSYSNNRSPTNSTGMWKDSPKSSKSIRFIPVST
T1 sequence (Q00788 whole entry): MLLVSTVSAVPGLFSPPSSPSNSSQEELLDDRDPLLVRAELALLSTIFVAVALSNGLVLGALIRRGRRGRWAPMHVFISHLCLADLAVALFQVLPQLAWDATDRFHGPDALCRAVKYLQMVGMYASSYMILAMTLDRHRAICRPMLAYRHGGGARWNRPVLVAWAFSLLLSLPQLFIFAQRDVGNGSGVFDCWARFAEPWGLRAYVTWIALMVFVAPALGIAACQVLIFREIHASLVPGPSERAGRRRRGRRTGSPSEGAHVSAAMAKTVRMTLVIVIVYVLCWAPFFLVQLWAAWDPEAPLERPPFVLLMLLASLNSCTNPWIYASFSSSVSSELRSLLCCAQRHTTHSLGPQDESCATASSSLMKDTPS

With `CC1(C)[C@@H]2CC[C@@]1(CS(=O)(=O)N1CCC3(C=Cc4ccccc43)CC1)[C@](C)(O)C2` [Example 13, EXO-(1S)-1′-(((2-HYDROXY-2,7,7-TRIMETHYLBICYCLO-(2.2.1)HEPT-1-YL)METHYL)SULFONYL)SPIRO(1H-INDENE-1,4′-PIPERIDINE)] the inhibition at 10 µM (AVP-V₂ sites) was 5% and the inhibition at 10 µM (AVP-V₁ sites) was 45%.

Compound `CC1(C)[C@H]2CC[C@]1(CS(=O)(=O)N1CCC3(C=Cc4ccccc43)CC1)C(=O)C2` [Example 7] has an inhibition at 10 µM (AVP-V₂ sites) of 6% and an inhibition at 10 µM (AVP-V₁ sites) of 0%.

Compound `CC1(C)[C@@H]2CC[C@@]1(CS(=O)(=O)N1CCC3(C=Cc4ccccc43)CC1)C(=O)C2` [Example 6] has an inhibition at 10 µM (AVP-V₂ sites) of 3% and an inhibition at 10 µM (AVP-V₁ sites) of 2%.

For `COC(=O)C[C@@]1(O)C[C@H]2CC[C@]1(CS(=O)(=O)N1CCC3(C=Cc4ccccc43)CC1)C2(C)C` [Example 19, (1S(1.ALPHA.,2.ALPHA.,4.ALPHA.))-2-HYDROXY-7,7-DIMETHYL-1-((SPIRO(1H-INDENE-1,4′-PIPERIDIN)-1′-YLSULFONYL)METHYL)BICYCLO(2.2.1)HEPTANE-2-ACETIC ACID METHYL ESTER], the inhibition at 10 µM (AVP-V₂ sites) was 20% and the inhibition at 10 µM (AVP-V₁ sites) was 54%.

Work on `CC1(C)[C@@H]2CC[C@@]1(CS(=O)(=O)N1CCC3(C=Cc4ccccc43)CC1)C(=NO)C2` [Example 27] yielded an inhibition at 10 µM (AVP-V₂ sites) of 21%, an inhibition at 10 µM (AVP-V₁ sites) of 52% and an IC50 (uterine OT receptors) of 490 nM.

`CCC1(O)CC2CC[C@]1(CS(=O)(=O)N1CCC3(C=Cc4ccccc43)CC1)C2(C)C` (stereo partly drawn) [Example 15] was tested, and the IC50 (AVP-V₁ sites) was about 9 µM and the IC50 (uterine OT receptors) was 470 nM.

`CC1(C)[C@@H]2CC[C@@]1(CS(=O)(=O)N1CCC3(C=Cc4ccccc43)CC1)[C@@](O)(CC(=O)O)C2` [Example 20, (1S(1.ALPHA.,2.ALPHA.,4.ALPHA.))-2-HYDROXY-7,7-DIMETHYL-1-((SPIRO(1H-INDENE-1,4′-PIPERIDIN)-1′-YLSULFONYL)METHYL)-BICYCLO-(2.2.1)HEPTANE-2-ACETIC ACID] showed an IC50 (AVP-V₂ sites; 2 nM [³H]AVP, rat kidney medulla membranes, 30 min at 30°C, read-out: Inhibition Vasopressin V2 IC50) of 83 µM, an IC50 (AVP-V₁ sites) of 89 µM and an IC50 (uterine OT receptors) of 570 nM.

Work on `CC1(C)[C@@H]2CC[C@@]1(CS(=O)(=O)N1CCC3(C=Cc4ccccc43)CC1)C(O)(c1ccccc1)C2` (stereo partly drawn) [Example 11] yielded an IC50 (uterine OT receptors) of 490 nM.

For [³H]OT [reference compound], the Kd (uterine OT receptors; radioligand, uterus, read-out: Kd values obtained from saturation binding assay) was 0.7 nM.
